According to US20100226857A1, “TUMOR CELL DIFFERENTIATION AGENTS AS CHEMICAL INHIBITORS AND TREATMENTS FOR INTRACELLULAR PARASITES” (priority 2006, published 2010):
In brackets after ≈: the same amount, converted by molar mass. Read-outs that look alike come from different tables or passages of the source.

How the values were obtained:
T. gondii tachyzoites [1] = test: T. gondii tachyzoite proliferation assay in HS68 cells (tachyzoite count); format: cell-based, Toxoplasma gondii
Experimental: Parasite propagation—The RH strain of Toxoplasma gondii was grown in BM bovine macrophage cells or HS68 human foreskin fibroblast cells obtained from the American Type Culture Collection (Rockville, Md.). HS68 cells were grown in RPMI 1640 medium (Mediatech, Inc., Herndon, Va.) plus 10% fetal bovine serum (Atlanta Biologicals, Lawrenceville, Ga.), 1 mM sodium pyruvate and 100 U/ml each of penicillin and streptomycin. Parasites were harvested from infected cultures of HS68 cells growing in T-75 cm^2 flasks. After removing the culture medium, the cells were scraped into 5 ml of phosphate-buffered saline and a cell lysate obtained by passing through a 26-gauge needle. To purify the parasites, the cell lysate was filtered through a 3 micron (micrometer) filter.
(§1) Proliferation assays: HS68 cells were replica plated in 48-well dishes, and grown to confluence prior to infection with 5-10×10^4 freshly purified T. gondii tachyzoites/well. After 2 hours, the media and non-infective tachyzoites were removed, and replaced with RPMI medium containing 2% fetal bovine serum plus 1 mM sodium pyruvate, penicillin (100 U), streptomycin (100 U) and test agent or a vehicle control. The proliferation assays were terminated 48-72 hours post-infection when the untreated cells were heavily infected. All of the culture media were removed from the wells, and the tachyzoites in the media were fixed by dilution (1:1) into phosphate-buffered saline containing 10% formaldehyde. The tachyzoites were collected by brief centrifugation (30 seconds, […]) at room temperature using a tabletop microfuge. The tachyzoites were resuspended in 100 ul of phosphate-buffered saline, and duplicate aliquots were counted using a hemocytometer. […] The monolayer of HS68 cells in each well was fixed and stained for 5 minutes using a solution of 50% ethanol-5% formaldehyde-0.1% crystal violet in 0.85% sodium chloride, then rinsed with water, and air-dried. The minimum inhibitory concentration (MIC) of compounds that suppressed Toxoplasma-induced lysis of the HS68 cells was determined visually by counting the number of plaques/well in the monolayer.

T. gondii = test: Plaque suppression / protection of HS68 monolayer from T. gondii; format: cell-based, Toxoplasma gondii; conditions: for MIC IC50 (ratio MIC/IC50): MIC plaque suppression relative to IC50 tachyzoite count; for MIC: Toxoplasma gondii, read-out: MIC (uM) Plaque Suppression
Experimental: as §1

[2] = test system: MCF-7 human breast cancer cells; test: ESR free radical (ROS) measurement in MCF-7 cell suspensions with DMPO; format: cell-based
Experimental: Free Radical Measurements: All ESR measurements were conducted using a Bruker EMIR spectrometer (Bruker Instruments Inc., Billerica, Mass.) and a flat-cell assembly. Hyperfine couplings were measured (to 0.1 G) directly from magnetic field separation using potassium tetraperoxochromate (K3CrO8) and 1,1-diphenyl-2-picrylhydrazyl as reference standards. The relative radical concentration was estimated by multiplying half of the peak height by (ΔHpp)^2, where (ΔHpp) represents peak-to-peak width. The Acquisit program was used for data acquisitions and analyses. MCF-7 cells (2.0×10^6 cells/60-mm^2 dish) were harvested 48 h after plating by trypsinization and collected at room temperature by centnfugation (225 g, 5 min). Cells were washed once with ice-cold PBS and resuspended in ice-cold PBS at 2×10^6 cells/ml. Radical production was measured in the presence of the spin trap 5,5-dimethyl-1-pyrroline-N-oxide (DMPO; Aldrich Chemical Co., Milwaukee, Wis.). DMPO (200 mM) and 1×10^6 cells test agents were mixed in 1.0 ml of PBS, incubated at 37° C. for 5 mm, and then transferred to a flat cell for ESR measurements.

[3] = test system: HS68 human foreskin fibroblast cells; test: Toxicity to HS68 host cells; format: cell-based
T. gondii tachyzoites [4] = test: In vivo acute toxoplasmosis in mice (survival); design: species or system Toxoplasma gondii; CD-1 mice; conditions: for control of acute toxoplasmosis in mice: TSA 0.5 mg/kg, SAHA 50 mg/kg, scriptaid 3.5 mg/kg i.p. once daily, valproic acid 300 mg/kg oral daily; for median survival: mice
Experimental: Specifically, female CD-1 mice (20 g) were inoculated in the sub-scapular region with 5,000 T. gondii tachyzoites on Day 0. […] The dose of scriptaid was not optimized in this experiment. In this study, valproic acid was administered orally in the drinking water at a dose of 300 mg/kg. Survival was monitored twice daily beginning on day 9 of the study. The results are depicted graphically in FIG. 5A and in tabular form in FIG. 5B.

human tumor cell lines = conditions: cited from earlier work
[5] = RH strain T. gondii in HS68 cells, 48-well plate, 48-72 hours post-infection, mean+/-SEM, read-out: IC50 (uM) Tachyzoite Count
[6] = RH strain T. gondii in HS68 cells, 48-well plate, mean+/-SEM
[7] = Toxoplasma gondii, RH strain T. gondii in HS68 cells, 48-well plate, 48-72 hours post-infection, mean+/-SEM, read-out: IC50 (uM) Tachyzoite Count

O=C(CCCCCCC(=O)NO)NO [SBHA, suberic bishydroxamic acid]
IC50 (T. gondii tachyzoites [1]; [5]): 0.213 ± 0.11 µM
MIC IC50 (ratio MIC/IC50) (T. gondii): 58.7
MIC (uM) Plaque Suppression (T. gondii; [6]): 12.5 ± 5 µM (≈ 2.55 µg/mL)
ESR signal indicative of ROS production in MCF-7 cells ([2]; 10 uM NSC3852, 8 uM NSC2039): rapid and robust ESR signals

O=C(CCCCCN1C(=O)c2cccc3cccc(c23)C1=O)NO [Scriptaid]
IC50 (T. gondii tachyzoites [1]; [7]): 0.039 ± 0.011 µM
IC50 (T. gondii tachyzoites [1]; Toxoplasma gondii, RH strain in HS68 cells, average of independent experiments, read-out: IC50 T. gondii tachyzoites): 0.037 µM
low concentrations stimulating tachyzoite numbers (T. gondii tachyzoites [1]; biphasic response, FIG. 4): 1 to 10 nM
times tachyzoites are more sensitive than human tumor cells (T. gondii tachyzoites [1]; tachyzoite IC50 vs literature tumor cell concentrations): 80-1500 times
state of HS68 monolayer of T. gondii-infected treated cells (T. gondii; 1 uM, 48 hours): completely intact
MIC IC50 (ratio MIC/IC50) (T. gondii): 5.8
MIC (T. gondii; [6]): 0.225 ± 0.025 µM (≈ 0.0734 µg/mL)
toxicity to HS68 cells at highest concentration tested ([3]; 10 uM): non-toxic
control of acute toxoplasmosis in mice (T. gondii tachyzoites [4]): showed in vivo efficacy
daily dose that can extend the life of mice infected with RH T. gondii (T. gondii tachyzoites [4]; for 14 days): about 3.5 mg/kg
IC50 levels reducing tumor cell proliferation in vitro (human tumor cell lines): 1 to 20 mg/L
IC50 (human tumor cell lines; read-out: IC50 levels reducing tumor cell proliferation in vitro): 3 to 60 µM

CCCC(=O)[O-].[Na+] [Sodium butyrate, sodium butyrate]
IC50 (T. gondii tachyzoites [1]; Toxoplasma gondii, Hs68, read-out: IC50 (uM) Tachyzoite Count): 1000 ± 455 µM
IC50 (T. gondii tachyzoites [1]; Toxoplasma gondii, Hs68, read-out: IC50 range of carboxylate inhibitors): 1000 to 5000 µM
MIC IC50 (ratio MIC/IC50) (T. gondii): 4.2
MIC (T. gondii): 4200 ± 800 µM

CC(/C=C/C(=O)NO)=C\[C@@H](C)C(=O)c1ccc(N(C)C)cc1 [TSA, trichostatin A]
IC50 (T. gondii tachyzoites [1]; [5]): 0.041 ± 0.001 µM
concentration that eliminated tachyzoites and plaque formation (T. gondii tachyzoites [1]; T. gondii infected HS68 cells): 200 nM
concentrations giving dramatic decrease in tachyzoite numbers (T. gondii tachyzoites [1]; p<0.05): > 100 nM
MIC IC50 (ratio MIC/IC50) (T. gondii): 4.3
MIC (uM) Plaque Suppression (T. gondii; [6]): 0.175 ± 0.025 µM (≈ 0.0529 µg/mL)
concentration at which apoptotic HS68 cells were evident [3]: 0.5 µM
control of acute toxoplasmosis in mice (T. gondii tachyzoites [4]): showed in vivo efficacy
relative peak heights of the ESR signals (mean±range, n=2) ([2]; 200 nM, 1×10^6 MCF-7 cells, 5 min at 37° C.): 99±1 mm

CCCC(CCC)C(=O)[O-].[Na+] [Valproic acid, sodium valproate]
IC50 (T. gondii tachyzoites [1]; [7]): 1600 ± 1120 µM
IC50 (T. gondii tachyzoites [1]; Toxoplasma gondii, RH strain in HS68 cells, read-out: IC50 range of carboxylate inhibitors): 1000 to 5000 µM
MIC IC50 (ratio MIC/IC50) (T. gondii): 5.2
MIC (T. gondii; [6]): 8300 ± 1000 µM
control of acute toxoplasmosis in mice (T. gondii tachyzoites [4]): ineffective
therapeutic effect against RH T. gondii in mice (T. gondii tachyzoites [4]; doses up to 600 mg/kg/day, oral or intraperitoneal): not therapeutic
median survival (T. gondii tachyzoites [4]; i.p. 400 mg/kg and 600 mg/kg divided into 2 daily doses): 10 days
median survival (T. gondii tachyzoites [4]; oral dose of 600 mg/kg): 12 days

NC(=O)c1cccnc1 [nicotinamide]
activity against T. gondii in in vitro assays (T. gondii tachyzoites [1]): minimal activity
